From ChEMBL document CHEMBL3045059, “Efficacy of ketoenols on insecticide resistant field populations of two-spotted spider mite Tetranychus urticae and sweet potato whitefly Bemisia tabaci from Greece” (2012)
Values after ≈ are worked out from the molar mass of the structure shown.

Key:
Assay type in all cases: functional
Tetranychus urticae [1] = experiment: Acaricidal activity against adult Tetranychus urticae (two-spotted spider mite) greenhouse population TU7 in bean leaves assessed as mortality applied at 1 bar pressure measured after 24 hr; details: TU7, 24 h
Tetranychus urticae [2] = experiment: Resistance ratio, ratio of LC50 for adult Tetranychus urticae (two-spotted spider mite) greenhouse population TU7 to LC50 for adult Tetranychus urticae laboratory strain SAMB measured after 24 hr
Tetranychus urticae [3] = experiment: Resistance ratio, ratio of LC50 for adult Tetranychus urticae (two-spotted spider mite) greenhouse population TU11 to LC50 for adult Tetranychus urticae laboratory strain SAMB measured after 24 hr
Tetranychus urticae [4] = experiment: Acaricidal activity against adult Tetranychus urticae (two-spotted spider mite) greenhouse population TU3 in bean leaves assessed as mortality applied at 1 bar pressure measured after 24 hr; details: TU3, 24 h
Tetranychus urticae [5] = experiment: Acaricidal activity against adult Tetranychus urticae (two-spotted spider mite) field population TU12 in bean leaves assessed as mortality applied at 1 bar pressure measured after 24 hr; details: TU12, 24 h
Tetranychus urticae [6] = experiment: Resistance ratio, ratio of LC50 for adult Tetranychus urticae (two-spotted spider mite) laboratory strain GSS to LC50 for adult Tetranychus urticae laboratory strain SAMB measured after 24 hr
Tetranychus urticae [7] = experiment: Resistance ratio, ratio of LC50 for adult Tetranychus urticae (two-spotted spider mite) field population TU12 to LC50 for adult Tetranychus urticae laboratory strain SAMB measured after 24 hr
Tetranychus urticae [8] = experiment: Acaricidal activity against adult Tetranychus urticae (two-spotted spider mite) field population TU2 in bean leaves assessed as mortality applied at 1 bar pressure measured after 24 hr; details: TU2, 24 h
Tetranychus urticae [9] = experiment: Resistance ratio, ratio of LC50 for adult Tetranychus urticae (two-spotted spider mite) field population TU6 to LC50 for adult Tetranychus urticae laboratory strain SAMB measured after 24 hr
Tetranychus urticae [10] = experiment: Acaricidal activity against adult Tetranychus urticae (two-spotted spider mite) greenhouse population TU5 in bean leaves assessed as mortality applied at 1 bar pressure measured after 24 hr; details: TU5, 24 h
Tetranychus urticae [11] = experiment: Acaricidal activity against adult Tetranychus urticae (two-spotted spider mite) greenhouse population TU9 in bean leaves assessed as mortality applied at 1 bar pressure measured after 24 hr; details: TU9, 24 h
Tetranychus urticae [12] = experiment: Acaricidal activity against adult Tetranychus urticae (two-spotted spider mite) laboratory strain GSS in bean leaves assessed as mortality applied at 1 bar pressure measured after 24 hr
Tetranychus urticae [13] = experiment: Resistance ratio, ratio of LC50 for adult Tetranychus urticae (two-spotted spider mite) field population TU2 to LC50 for adult Tetranychus urticae laboratory strain SAMB measured after 24 hr
Tetranychus urticae [14] = experiment: Acaricidal activity against adult Tetranychus urticae (two-spotted spider mite) greenhouse population TU1 in bean leaves assessed as mortality applied at 1 bar pressure measured after 24 hr; details: TU1, 24 h
Tetranychus urticae [15] = experiment: Acaricidal activity against adult Tetranychus urticae (two-spotted spider mite) field population TU6 in bean leaves assessed as mortality applied at 1 bar pressure measured after 24 hr; details: TU6, 24 h
Tetranychus urticae [16] = experiment: Resistance ratio, ratio of LC50 for adult Tetranychus urticae (two-spotted spider mite) greenhouse population TU5 to LC50 for adult Tetranychus urticae laboratory strain SAMB measured after 24 hr
Tetranychus urticae [17] = experiment: Resistance ratio, ratio of LC50 for adult Tetranychus urticae (two-spotted spider mite) greenhouse population TU9 to LC50 for adult Tetranychus urticae laboratory strain SAMB measured after 24 hr
Tetranychus urticae [18] = experiment: Acaricidal activity against adult Tetranychus urticae (two-spotted spider mite) field population TU4 in bean leaves assessed as mortality applied at 1 bar pressure measured after 24 hr; details: TU4, 24 h
Tetranychus urticae [19] = experiment: Resistance ratio, ratio of LC50 for adult Tetranychus urticae (two-spotted spider mite) greenhouse population TU3 to LC50 for adult Tetranychus urticae laboratory strain SAMB measured after 24 hr
Tetranychus urticae [20] = experiment: Acaricidal activity against adult Tetranychus urticae (two-spotted spider mite) greenhouse population TU11 in bean leaves assessed as mortality applied at 1 bar pressure measured after 24 hr; details: TU11, 24 h
Tetranychus urticae [21] = experiment: Resistance ratio, ratio of LC50 for adult Tetranychus urticae (two-spotted spider mite) greenhouse population TU1 to LC50 for adult Tetranychus urticae laboratory strain SAMB measured after 24 hr
Tetranychus urticae [22] = experiment: Acaricidal activity against adult Tetranychus urticae (two-spotted spider mite) laboratory strain SAMB in bean leaves assessed as mortality applied at 1 bar pressure measured after 24 hr
Tetranychus urticae [23] = experiment: Resistance ratio, ratio of LC50 for adult Tetranychus urticae (two-spotted spider mite) field population TU4 to LC50 for adult Tetranychus urticae laboratory strain SAMB measured after 24 hr
Tetranychus urticae [24] = experiment: Resistance ratio, ratio of LC50 for adult Tetranychus urticae (two-spotted spider mite) field population TU2 to LC50 for adult Tetranychus urticae laboratory strain SAMB measured after 48 hr
Tetranychus urticae [25] = experiment: Resistance ratio, ratio of LC50 for adult Tetranychus urticae (two-spotted spider mite) greenhouse population TU11 to LC50 for adult Tetranychus urticae laboratory strain SAMB measured after 48 hr
Tetranychus urticae [26] = experiment: Resistance ratio, ratio of LC50 for adult Tetranychus urticae (two-spotted spider mite) field population TU6 to LC50 for adult Tetranychus urticae laboratory strain SAMB measured after 48 hr
Tetranychus urticae [27] = experiment: Acaricidal activity against adult Tetranychus urticae (two-spotted spider mite) field population TU6 in bean leaves assessed as mortality applied at 1 bar pressure measured after 48 hr; details: TU6, 48 h
Tetranychus urticae [28] = experiment: Resistance ratio, ratio of LC50 for adult Tetranychus urticae (two-spotted spider mite) greenhouse population TU5 to LC50 for adult Tetranychus urticae laboratory strain SAMB measured after 48 hr
Tetranychus urticae [29] = experiment: Resistance ratio, ratio of LC50 for adult Tetranychus urticae (two-spotted spider mite) greenhouse population TU7 to LC50 for adult Tetranychus urticae laboratory strain SAMB measured after 48 hr
Tetranychus urticae [30] = experiment: Acaricidal activity against adult Tetranychus urticae (two-spotted spider mite) field population TU2 in bean leaves assessed as mortality applied at 1 bar pressure measured after 48 hr; details: TU2, 48 h
Tetranychus urticae [31] = experiment: Acaricidal activity against adult Tetranychus urticae (two-spotted spider mite) laboratory strain SAMB in bean leaves assessed as mortality applied at 1 bar pressure measured after 48 hr
Tetranychus urticae [32] = experiment: Resistance ratio, ratio of LC50 for adult Tetranychus urticae (two-spotted spider mite) greenhouse population TU9 to LC50 for adult Tetranychus urticae laboratory strain SAMB measured after 48 hr
Tetranychus urticae [33] = experiment: Acaricidal activity against adult Tetranychus urticae (two-spotted spider mite) field population TU4 in bean leaves assessed as mortality applied at 1 bar pressure measured after 48 hr; details: TU4, 48 h
Tetranychus urticae [34] = experiment: Acaricidal activity against adult Tetranychus urticae (two-spotted spider mite) greenhouse population TU3 in bean leaves assessed as mortality applied at 1 bar pressure measured after 48 hr; details: TU3, 48 h
Tetranychus urticae [35] = experiment: Acaricidal activity against adult Tetranychus urticae (two-spotted spider mite) greenhouse population TU9 in bean leaves assessed as mortality applied at 1 bar pressure measured after 48 hr; details: TU9, 48 h
Tetranychus urticae [36] = experiment: Resistance ratio, ratio of LC50 for adult Tetranychus urticae (two-spotted spider mite) greenhouse population TU1 to LC50 for adult Tetranychus urticae laboratory strain SAMB measured after 48 hr
Tetranychus urticae [37] = experiment: Acaricidal activity against adult Tetranychus urticae (two-spotted spider mite) laboratory strain GSS in bean leaves assessed as mortality applied at 1 bar pressure measured after 48 hr
Tetranychus urticae [38] = experiment: Resistance ratio, ratio of LC50 for adult Tetranychus urticae (two-spotted spider mite) field population TU4 to LC50 for adult Tetranychus urticae laboratory strain SAMB measured after 48 hr
Tetranychus urticae [39] = experiment: Acaricidal activity against adult Tetranychus urticae (two-spotted spider mite) field population TU12 in bean leaves assessed as mortality applied at 1 bar pressure measured after 48 hr; details: TU12, 48 h
Tetranychus urticae [40] = experiment: Acaricidal activity against adult Tetranychus urticae (two-spotted spider mite) greenhouse population TU5 in bean leaves assessed as mortality applied at 1 bar pressure measured after 48 hr; details: TU5, 48 h
Tetranychus urticae [41] = experiment: Acaricidal activity against adult Tetranychus urticae (two-spotted spider mite) greenhouse population TU11 in bean leaves assessed as mortality applied at 1 bar pressure measured after 48 hr; details: TU11, 48 h
Tetranychus urticae [42] = experiment: Resistance ratio, ratio of LC50 for adult Tetranychus urticae (two-spotted spider mite) field population TU12 to LC50 for adult Tetranychus urticae laboratory strain SAMB measured after 48 hr
Tetranychus urticae [43] = experiment: Resistance ratio, ratio of LC50 for adult Tetranychus urticae (two-spotted spider mite) laboratory strain GSS to LC50 for adult Tetranychus urticae laboratory strain SAMB measured after 48 hr
Tetranychus urticae [44] = experiment: Acaricidal activity against adult Tetranychus urticae (two-spotted spider mite) greenhouse population TU1 in bean leaves assessed as mortality applied at 1 bar pressure measured after 48 hr; details: TU1, 48 h
Tetranychus urticae [45] = experiment: Acaricidal activity against adult Tetranychus urticae (two-spotted spider mite) greenhouse population TU7 in bean leaves assessed as mortality applied at 1 bar pressure measured after 48 hr; details: TU7, 48 h
Tetranychus urticae [46] = experiment: Resistance ratio, ratio of LC50 for adult Tetranychus urticae (two-spotted spider mite) greenhouse population TU3 to LC50 for adult Tetranychus urticae laboratory strain SAMB measured after 48 hr

Q: How did the LC50 (Tetranychus urticae [1]) turn out when CC(C)(C)c1ccc(CSc2cnn(C(C)(C)C)c(=O)c2Cl)cc1 [PYRIDABEN] was run?
A: The LC50 was 221 µg/mL (≈ 606 µM).

Q: What about the RatioLC50 (Tetranychus urticae [2]) of the same compound?
A: The RatioLC50 was 34.

Q: What about the RatioLC50 (Tetranychus urticae [3]) of the same compound?
A: Its RatioLC50 is 39.

Q: And the LC50 (Tetranychus urticae [4])?
A: The LC50 was 117 µg/mL (≈ 321 µM).

Q: What about the LC50 (Tetranychus urticae [5]) of the same compound?
A: The LC50 was 62 µg/mL (≈ 170 µM).

Q: And the RatioLC50 (Tetranychus urticae [6])?
A: Its RatioLC50 is 0.7.

Q: What about the RatioLC50 (Tetranychus urticae [7]) of the same compound?
A: Its RatioLC50 is 9.8.

Q: And the LC50 (Tetranychus urticae [8])?
A: The LC50 was 71 µg/mL (≈ 195 µM).

Q: What about the RatioLC50 (Tetranychus urticae [9]) of the same compound?
A: Its RatioLC50 is 2.6.

Q: And the LC50 (Tetranychus urticae [10])?
A: Its LC50 is 38 µg/mL (≈ 104 µM).

Q: What about the LC50 (Tetranychus urticae [11]) of the same compound?
A: The LC50 was 166 µg/mL (≈ 455 µM).

Q: And the LC50 (Tetranychus urticae [12])?
A: Its LC50 is 4.4 µg/mL (≈ 12.1 µM).

Q: And the RatioLC50 (Tetranychus urticae [13])?
A: Its RatioLC50 is 11.

Q: And the LC50 (Tetranychus urticae [14])?
A: Its LC50 is 29 µg/mL (≈ 79.5 µM).

Q: What about the LC50 (Tetranychus urticae [15]) of the same compound?
A: Its LC50 is 16 µg/mL (≈ 43.8 µM).

Q: What about the RatioLC50 (Tetranychus urticae [16]) of the same compound?
A: The RatioLC50 was 5.9.

Q: What about the RatioLC50 (Tetranychus urticae [17]) of the same compound?
A: The RatioLC50 was 26.

Q: What about the LC50 (Tetranychus urticae [18]) of the same compound?
A: The LC50 was 26 µg/mL (≈ 71.2 µM).

Q: And the RatioLC50 (Tetranychus urticae [19])?
A: Its RatioLC50 is 18.

Q: And the LC50 (Tetranychus urticae [20])?
A: Its LC50 is 248 µg/mL (≈ 680 µM).

Q: And the RatioLC50 (Tetranychus urticae [21])?
A: Its RatioLC50 is 4.5.

Q: And the LC50 (Tetranychus urticae [22])?
A: Its LC50 is 6.4 µg/mL (≈ 17.5 µM).

Q: What about the RatioLC50 (Tetranychus urticae [23]) of the same compound?
A: The RatioLC50 was 4.

Q: With Cc1c(COC(=O)[C@@H]2[C@H](/C=C(\Cl)C(F)(F)F)C2(C)C)cccc1-c1ccccc1 (relative stereo) [BIFENTHRIN] as the compound, how does the RatioLC50 (Tetranychus urticae [24]) read?
A: The RatioLC50 was 4.7.

Q: And the RatioLC50 (Tetranychus urticae [25])?
A: Its RatioLC50 is 19.

Q: And the RatioLC50 (Tetranychus urticae [26])?
A: The RatioLC50 was 0.9.

Q: And the LC50 (Tetranychus urticae [27])?
A: Its LC50 is 8.5 µg/mL (≈ 20.1 µM).

Q: What about the RatioLC50 (Tetranychus urticae [28]) of the same compound?
A: Its RatioLC50 is 5.

Q: And the RatioLC50 (Tetranychus urticae [29])?
A: The RatioLC50 was 8413.

Q: And the LC50 (Tetranychus urticae [30])?
A: The LC50 was 42 µg/mL (≈ 99.3 µM).

Q: What about the LC50 (Tetranychus urticae [31]) of the same compound?
A: The LC50 was 8.9 µg/mL (≈ 21 µM).

Q: What about the RatioLC50 (Tetranychus urticae [32]) of the same compound?
A: Its RatioLC50 is 12.

Q: And the LC50 (Tetranychus urticae [33])?
A: The LC50 was 3140 µg/mL (≈ 7420 µM).

Q: And the LC50 (Tetranychus urticae [34])?
A: Its LC50 is 741 µg/mL (≈ 1750 µM).

Q: What about the LC50 (Tetranychus urticae [35]) of the same compound?
A: Its LC50 is 112 µg/mL (≈ 265 µM).

Q: What about the RatioLC50 (Tetranychus urticae [36]) of the same compound?
A: Its RatioLC50 is 13.

Q: And the LC50 (Tetranychus urticae [37])?
A: The LC50 was 13 µg/mL (≈ 30.7 µM).

Q: What about the RatioLC50 (Tetranychus urticae [38]) of the same compound?
A: The RatioLC50 was 351.

Q: What about the LC50 (Tetranychus urticae [39]) of the same compound?
A: Its LC50 is 85 µg/mL (≈ 201 µM).

Q: And the LC50 (Tetranychus urticae [40])?
A: Its LC50 is 45 µg/mL (≈ 106 µM).

Q: What about the LC50 (Tetranychus urticae [41]) of the same compound?
A: The LC50 was 168 µg/mL (≈ 397 µM).

Q: What about the RatioLC50 (Tetranychus urticae [42]) of the same compound?
A: Its RatioLC50 is 9.5.

Q: And the RatioLC50 (Tetranychus urticae [43])?
A: Its RatioLC50 is 1.5.

Q: What about the LC50 (Tetranychus urticae [44]) of the same compound?
A: Its LC50 is 115 µg/mL (≈ 272 µM).

Q: What about the LC50 (Tetranychus urticae [45]) of the same compound?
A: Its LC50 is 75100 µg/mL (≈ 178000 µM).

Q: And the RatioLC50 (Tetranychus urticae [46])?
A: The RatioLC50 was 83.
